Where two headings read alike, the source gives them in different places.
Tests used:
[1] = tested on: anti-morphine monoclonal antibody; format: binding
Method: For morphine, aminomorphine and the above-mentioned fluorochrome-labeled morphines, relative immuno-affinity for anti-morphine monoclonal antibody was measured using a competitive reaction in which they competed with tritium-labeled morphine.

[2] = tested on: DNA having a known base sequence; assay: Analysis of the base sequence of DNA (Sanger reaction with labeled primers, DNA sequencer equipped with a semiconductor laser); details: Triton X-100; semiconductor laser 680 nm
Method: A DNA having a known base sequence was used as a sample. Sanger reaction was carried out for the 4 kinds of bases using each of the labeled primers synthesized in Examples 19 to 25 or primers having a tetraazaporphin attached thereto through a linker synthesized in the same manner as in Examples 19 to 25. The DNA fragments thus obtained were separated by electrophoresis in different lanes for the 4 reaction systems, respectively, and analyzed by means of a DNA sequencer equipped with a semiconductor laser. The reaction systems contained a nonionic surfactant as an addition if necessary.
Each of the phthalocyanines disclosed in International Application Number PCT/US89/03807 was attached to the oligonucleotide primer obtained in Example 18, according to the methods of grafted patents and the methods described in Examples 19 to 25 of this invention. Using each of the phthalocyanine-attached oligonucleotides thus obtained, the base sequence of DNA was analyzed in the same manner as in Example 26.

Human β-globin gene = assay: Detection of β-globin gene in human DNA by PCR with labeled primers, fluorescence intensity of eluate; details: Triton X-100, laser 680 nm
Method: Human β-globin gene was detected by a gene detection method using the PCR (Polymorase Chain Reaction) method.
Twenty cycles of gene amplification was carried out (the total volume of solution: 100 μl) according to the protocol of Perkin-Elmer-Cetus Corporation by using human placental DNA (1 μg), each of the labeled primers, i.e., illustrative compound No.-[…], synthesized in the manner described above (300 ng), HO-[…] (300 ng), a nonionic surfactant, and TaqDNA polymerase (Perkin-Elmer-Cetus Corporation).
Human placental DNA (1 μg), the same illustrative compound No.-[…] as in sample 1 (300 ng), HO-[…] (300 ng) and a nonionic surfactant were added to a reaction solution containing no TaqDNA polymerase which had been prepared according to the protocol of Perkin-Elmer-Cetus Corporation (the total volume of the solution: 100 μl). […]
After washing with buffer solution A (500 μl) and buffer solution A containing 5% ethanol (500 μl), elution was carried out using buffer solution A containing 10% ethanol (500 μl). The pH of the eluate was adjusted to about 8, and fluorescence intensity was measured by means of a photodiode array by using a semiconductor laser as an exciting light source. […]

[3] = Measurement of fluorescence quantum yield (relative quantum yield method); format: physicochemical; details: Methanol
Method: For the tetraazaporphins obtained in Examples 1 to 11 and tetraaxzaporphins of this invention obtained in the same manner as in Examples 1 to 11, fluorescence quantum yield was measured according to the method for measuring relative quantum yield described in a reference [J. Photochem. Photobiol, A. Chemistry, vol. 45, p. 117-121 (1988)] using 1,1',3,3,3',3'-hexamethylindotricarbocyanine perchlorate or oxazine-720 as a standard substance in the near infrared region. As is clear from Tables 10 to 12, all of the fluorochromes for labeling of this invention show a sufficient fluorescence quantum yield.

For “3-(4-aminobutyl)morphine [Aminomorphine]”, the Relative affinity [1] was 1.

For `CN1CC[C@]23c4c5ccc(O)c4O[C@H]2[C@@H](O)C=C[C@H]3[C@H]1C5` [Morphine], the Relative affinity ([1]; relative to morphine, competitive reaction with tritium-labeled morphine) was 1.

In the case of “Tetraazaporphin-labeled primer 62: oligonucleotide primer 5'-GTTTCCCAGTCACGAC-3' labeled with illustrative compound No. 62 (labeled with tetraazaporphin compound No. 62, position not given here)”, the “Number of bases of DNA” value [2] is reported as 350, the Precision [2] is reported as 99.7% and the “Relative intensity Sample 1” value (Human β-globin gene; Sample 1 (with TaqDNA polymerase, 20 cycles)) is reported as 6. For the same compound, the “Relative intensity Sample 2” value (Human β-globin gene; Sample 2 (no TaqDNA polymerase)) was 134.

In the case of “sodium bis(tributylsiloxy)silicon-tetraphenylthionaphthalocyanine octacarboxylate [Illustrative compound No. 1]”, the Fluorescence quantum yield ([3]; excitation wavelength 700 nm) is reported as 0.33.

“sodium bis(tributylsiloxy)silicon-tetraphenylthionaphthalocyaninesulfonate [Illustrative compound No. 6]” gave a Fluorescence quantum yield ([3]; excitation wavelength 700 nm) of 0.30.

For “sodium bis(tributylsiloxy)silicon-tetraphenylthioquinolocyanineoctacarboxylate [Illustrative compound No. 21]”, the Fluorescence quantum yield ([3]; excitation wavelength 650 nm) was 0.52.

Work on “sodium bis(trihydroxyneopentoxy)silicon-tetraphenylthionaphthalocyanineoctacarboxylate [Illustrative compound No. 11]” yielded a Fluorescence quantum yield ([3]; excitation wavelength 700 nm) of 0.34.

For “sodium bis(tripropylsiloxy)silicon-tetraethylthionaphthalocyaninetetracarboxylate [Illustrative compound No. 16]”, the Fluorescence quantum yield ([3]; excitation wavelength 700 nm) was 0.32.

— patent publication US5438135A, “Water-soluble tetraazaporphins and fluorochrome for labeling” (Hitachi Chemical Company, priority 1991, dated 1995)
